Values of other authors as cited in patent US20240252671A1, “NEODEGRADER-ANTI-CD33 ANTIBODY CONJUGATES” (priority 2021, published 2024).

How the values were obtained:
AML-193 = settings: stated as known; cited from earlier work
Kasumi-6 = settings: stated as known; cited from earlier work

## Mylotarg: a CD33-targeting ADC clinically approved for the treatment of AML
AML-193
  sensitivity of cell line to Mylotarg: insensitive
Kasumi-6
  sensitivity of cell line to Mylotarg: insensitive
